Patent publication US8084643B2, “Water-soluble prodrugs of florfenicol and its analogs” (Intervet Inc., priority 2006, dated 2011)
Read-outs that look alike come from different tables or passages of the source.

What was measured:
[1] = Stability of prodrugs in aqueous solution at pH 4.5; format: physicochemical; conditions: distilled water, pH 4.5, room temperature, florfenicol release by HPLC
Method: (§1) Determination of stability of prodrugs in aqueous solutions. Prodrugs were dissolved in pH 7.4 phosphate buffer at concentration of 1 mg/mL. • The clear solution was placed at room temperature. 400 μL aliquots of the solution were transferred at times 0, 1, 2, 8, 24, and 48 hours to plastic tubes containing 400 μL dilute HCl solution to achieve the final pH of around 4.0. Samples were analyzed by HPLC. The peak area of florfenicol was used to determine the rate of the parent drug release. at pH 4.5 • Prodrugs were dissolved in distilled water at concentration of 0.5 mg/mL. The pH was adjusted to 4.5 with dilute HCl when necessary. The clear solution was placed at room temperature. Samples for analysis were removed at times 0, 1, 2, 4, and 7 days. Samples were analyzed by HPLC. Peak area of florfenicol was used to determine the rate of the parent drug release. Instrument: Agilent 1100 Column: C18, 5 mm, 2.1 mm×150 mm Flow rate: 0.5 mL/min Temperature: 30° C. Detector: UV 254 nm Injection volume: 10 mL Solvent: gradient with 0.1% formic acid in water, acetonitrile

[2] = Stability of prodrugs in aqueous solution at pH 7.4 (phosphate buffer); format: physicochemical
Method: Determination of stability of prodrugs in aqueous solutions.
as §1, with “Prodrugs” for “Determination of stability of prodrugs in aqueous solutions. Prodrugs”, “release.” for “release. Instrument: Agilent 1100 Column: C18, 5 mm, 2.1 mm×150 mm Flow rate: 0.5 mL/min Temperature: 30° C. Detector: UV 254 nm Injection volume: 10 mL Solvent: gradient with 0.1% formic acid in water, acetonitrile”
(§2) Solvent: gradient with 0.1% formic acid in water, acetonitrile

[3] = Stability of prodrugs in bovine serum; format: in vitro ADME; conditions: for half-life at 0.099 mg/mL: 37° C.
Method: (§3) Determination of stability of prodrugs in bovine or swine serum; • 10 mg/mL in dimethylsulfoxide stock solutions of pro-drugs were prepared. 50 μL of the above stock solution was added to 5 mL bovine or swine serum, and mixed. 400 μL aliquots of the above pro-drug serum solutions were transferred into plastic tubes (one tube per time point). Solutions were incubated at 37° C. for predetermined time. Samples were removed at times 0, 1, 2, 4, 8, and 24 hours and were spiked with 400 μL of acetonitrile. Samples were stirred for 30 seconds to precipitate the protein and to stop the reaction and were centrifuged at 14,000 rpm for 5 minutes. The supernatant was collected for HPLC analysis. Peak area of florfenicol was used to determine the rate of the parent drug release HPLC Conditions
as §2

[4] = Stability of prodrugs in swine serum; format: in vitro ADME; conditions: 37° C., florfenicol release by HPLC
Method: as §3, §2

[5] = Stability of prodrugs in aqueous solution at pH 7.4 (phosphate buffer); format: physicochemical; conditions: in vitro evaluation, pH 7.4 adjusted solution
[6] = pH 7.4, pH 7.4 phosphate buffer, 1 mg/mL, room temperature, florfenicol release by HPLC, read-out: Half life pH 7.4 (converted)
[7] = pH 7.4, pH 7.4 aqueous solutions, range from a few minutes to 3 hrs, read-out: Half-lives in pH 7.4 aqueous solutions

| half-life at 0.5 mg/mL [1] [days] | half-life at 1 mg/mL [2, 6] [h] | half-life at 0.099 mg/mL ([3]; florfenicol release by HPLC) [h] | half-life at 1 mg/mL [2, 7] [h] | half-life at 1 mg/mL ([2]; pH 7.4, pH 7.4 phosphate buffer, 1 mg/mL, room temperature, min, read-out: Half life pH 7.4 (converted)) [h] | half-life at 0.099 mg/mL ([3]; min) [h] | half-life at 0.099 mg/mL [4] [h] | formation of the rearranged isomer of the prodrug [5] | rearrangement in bovine serum [3] | Structure (SMILES) |
| --- | --- | --- | --- | --- | --- | --- | --- | --- | --- |
| 567 | 84 | 1.4 | – | – | – | – | – | – | CNCCCCC(=O)O[C@H](c1ccc(S(C)(=O)=O)cc1)[C@@H](CF)NC(=O)C(Cl)Cl.Cl [Example 12] |
| 44 | – | – | ≤ 3 | < 0.167 | < 0.167 | – | – | – | CS(=O)(=O)c1ccc([C@@H](OC(=O)[C@H](N)CCCN)[C@@H](CF)NC(=O)C(Cl)Cl)cc1.Cl.Cl [Example 8] |
| 52 | 0.89 | 1.4 | ≤ 3 | – | – | 1.2 | – | – | CS(=O)(=O)c1ccc([C@@H](OC(=O)CNC(=O)CN)[C@@H](CF)NC(=O)C(Cl)Cl)cc1.Cl [Example 9, (1R,2S)-2-(2,2-dichloroacetamido)-3-fluoro-1-(4-(methylsulfonyl)phenyl)propyl (1-amino-acetoamino)acetate hydrochloride] |
| – | 300 | 3.5 | – | – | – | – | – | – | CS(=O)(=O)c1ccc([C@@H](OC(=O)CCCN)[C@@H](CF)NC(=O)C(Cl)Cl)cc1.Cl [Example 3, (1R,2S)-2-(2,2-dichloroacetamido)-3-fluoro-1-(4-(methylsulfonyl)phenyl)propyl 4-aminobutyrate hydrochloride] |
| 156 | 6.1 | 0.59 | ≤ 3 | – | – | – | considerable amounts | – | CCNCCOC(=O)O[C@H](c1ccc(S(C)(=O)=O)cc1)[C@@H](CF)NC(=O)C(Cl)Cl.Cl [Example 7, (1R,2S)-2-(2,2-dichloroacetamido)-3-fluoro-1-(4-(methylsulfonyl)phenyl)propyl 2-(ethylamino)ethyl carbonate hydrochloride] |
| 487 | 0.5 | – | ≤ 3 | – | – | – | considerable amounts | – | CNCCOC(=O)O[C@H](c1ccc(S(C)(=O)=O)cc1)[C@@H](CF)NC(=O)C(Cl)Cl.Cl [Example 2, (1R,2S)-2-(2,2-dichloroacetamido)-3-fluoro-1-(4-(methylsulfonyl)phenyl)propyl 2-(methylamino)ethyl carbonate hydrochloride] |
| 137 | 0.66 | – | ≤ 3 | – | < 0.167 | – | – | – | CS(=O)(=O)c1ccc([C@@H](OC(=O)COCCN)[C@@H](CF)NC(=O)C(Cl)Cl)cc1.Cl [Example 14, (1R,2S)-2-(2,2-dichloroacetamido)-3-fluoro-1-(4-(methylsulfonyl)phenyl)propyl (2-amino-ethoxy)acetate hydrochloride] |
| > 1000 | 350 | 10.5 | – | – | – | – | – | – | Br.Cn1cc[n+](CCCC(=O)O[C@H](c2ccc(S(C)(=O)=O)cc2)[C@@H](CF)NC(=O)C(Cl)Cl)c1 [Example 16, 1-[3-[2-(2,2-Dichloro-acetylamino)-3-fluoro-1-(4-methanesulfonyl-phenyl)-propoxycarbonyl]-propyl]-3-methyl-3H-imidazol-1-ium bromide] |
| 290 | 2.5 | – | ≤ 3 | – | < 0.167 | – | – | – | C[C@H](N)C(=O)N[C@@H](C)C(=O)O[C@H](c1ccc(S(C)(=O)=O)cc1)[C@@H](CF)NC(=O)C(Cl)Cl.Cl [Example 11, (1R,2S)-2-(2,2-dichloroacetamido)-3-fluoro-1-(4-(methylsulfonyl)phenyl)propyl 2-(2-amino-propionylamino)propionate hydrochloride] |
| 339 | 290 | 0.71 | – | – | – | – | – | – | CCNCCCOC(=O)O[C@H](c1ccc(S(C)(=O)=O)cc1)[C@@H](CF)NC(=O)C(Cl)Cl.Cl [Example 13, (1R,2S)-2-(2,2-dichloroacetamido)-3-fluoro-1-(4-(methylsulfonyl)phenyl)propyl 3-(ethylamino)propyl carbonate hydrochloride] |
| 278 | 670 | 6.5 | – | – | – | – | – | – | C[C@@H](N)C(=O)NCCCC(=O)O[C@H](c1ccc(S(C)(=O)=O)cc1)[C@@H](CF)NC(=O)C(Cl)Cl.Cl [Example 4, (1R,2S)-2-(2,2-dichloroacetamido)-3-fluoro-1-(4-(methylsulfonyl)phenyl)propyl 4-(2-amino-propionylamino)butyrate hydrochloride] |
| 18 | 4.4 | 1.8 | – | – | – | – | – | – | CS(=O)(=O)c1ccc([C@@H](OC(=O)CN)[C@@H](CF)NC(=O)C(Cl)Cl)cc1 [Example 17, Amino-acetic acid 2-(2,2-dichloro-acetylamino)-3-fluoro-1-(4-methanesulfonyl-phenyl)-propyl ester] |
| 202 | 1.8 | 0.7 | ≤ 3 | – | – | – | considerable amounts | – | CS(=O)(=O)c1ccc([C@@H](OC(=O)OCCN)[C@@H](CF)NC(=O)C(Cl)Cl)cc1.Cl [Example 1, (1R,2S)-2-(2,2-dichloroacetamido)-3-fluoro-1-(4-(methylsulfonyl)phenyl)propyl 2-aminoethyl carbonate hydrochloride] |
| 643 | 100 | 0.49 | – | – | – | 4.1 | – | – | CS(=O)(=O)c1ccc([C@@H](OC(=O)CCCCN)[C@@H](CF)NC(=O)C(Cl)Cl)cc1.Cl [Example 10, (1R,2S)-2-(2,2-dichloroacetamido)-3-fluoro-1-(4-(methylsulfonyl)phenyl)propyl 5-aminopentanoate hydrochloride] |
| > 1000 | 160 | – | – | – | – | – | – | – | Br.C[N+](C)(C)CCCC(=O)O[C@H](c1ccc(S(C)(=O)=O)cc1)[C@@H](CF)NC(=O)C(Cl)Cl [Example 15] |

| Structure (SMILES) | half-life at 0.5 mg/mL [1] [days] | half-life at 1 mg/mL [2, 6] [h] | half-life at 0.099 mg/mL ([3]; florfenicol release by HPLC) [h] | half-life at 1 mg/mL [2, 7] [h] | half-life at 1 mg/mL ([2]; pH 7.4, pH 7.4 phosphate buffer, 1 mg/mL, room temperature, min, read-out: Half life pH 7.4 (converted)) [h] | half-life at 0.099 mg/mL ([3]; min) [h] | half-life at 0.099 mg/mL [4] [h] | formation of the rearranged isomer of the prodrug [5] | rearrangement in bovine serum [3] |
| --- | --- | --- | --- | --- | --- | --- | --- | --- | --- |
| CS(=O)(=O)c1ccc([C@@H](OC(=O)OCCCN)[C@@H](CF)NC(=O)C(Cl)Cl)cc1.Cl [Example 5, (1R,2S)-2-(2,2-dichloroacetamido)-3-fluoro-1-(4-(methylsulfonyl)phenyl)propyl 3-aminopropyl carbonate hydrochloride] | 248 | 83 | 3.8 | – | – | – | 9.5 | only a small amount of rearrangement product | no rearrangement was observed |
| CNCCCOC(=O)O[C@H](c1ccc(S(C)(=O)=O)cc1)[C@@H](CF)NC(=O)C(Cl)Cl.Cl [Example 6, (1R,2S)-2-(2,2-dichloroacetamido)-3-fluoro-1-(4-(methylsulfonyl)phenyl)propyl 3-(methylamino)propyl carbonate hydrochloride] | 269 | 74 | 0.69 | – | – | – | 7 | did not show any formation of the rearranged isomer | – |
